Assay results reported in ChEMBL document CHEMBL3991601, “The target landscape of clinical kinase drugs” (Science, 2017).
The source made the active and inactive calls. For most assays here, no stated cut-off is given here; in the data, actives have a measured Kd and inactives only a lower limit.

Tests used:
[1] = target: T1, Structural maintenance of chromosomes protein 1A (Homo sapiens, UniProt Q14683)
T1 sequence (Q14683 whole entry): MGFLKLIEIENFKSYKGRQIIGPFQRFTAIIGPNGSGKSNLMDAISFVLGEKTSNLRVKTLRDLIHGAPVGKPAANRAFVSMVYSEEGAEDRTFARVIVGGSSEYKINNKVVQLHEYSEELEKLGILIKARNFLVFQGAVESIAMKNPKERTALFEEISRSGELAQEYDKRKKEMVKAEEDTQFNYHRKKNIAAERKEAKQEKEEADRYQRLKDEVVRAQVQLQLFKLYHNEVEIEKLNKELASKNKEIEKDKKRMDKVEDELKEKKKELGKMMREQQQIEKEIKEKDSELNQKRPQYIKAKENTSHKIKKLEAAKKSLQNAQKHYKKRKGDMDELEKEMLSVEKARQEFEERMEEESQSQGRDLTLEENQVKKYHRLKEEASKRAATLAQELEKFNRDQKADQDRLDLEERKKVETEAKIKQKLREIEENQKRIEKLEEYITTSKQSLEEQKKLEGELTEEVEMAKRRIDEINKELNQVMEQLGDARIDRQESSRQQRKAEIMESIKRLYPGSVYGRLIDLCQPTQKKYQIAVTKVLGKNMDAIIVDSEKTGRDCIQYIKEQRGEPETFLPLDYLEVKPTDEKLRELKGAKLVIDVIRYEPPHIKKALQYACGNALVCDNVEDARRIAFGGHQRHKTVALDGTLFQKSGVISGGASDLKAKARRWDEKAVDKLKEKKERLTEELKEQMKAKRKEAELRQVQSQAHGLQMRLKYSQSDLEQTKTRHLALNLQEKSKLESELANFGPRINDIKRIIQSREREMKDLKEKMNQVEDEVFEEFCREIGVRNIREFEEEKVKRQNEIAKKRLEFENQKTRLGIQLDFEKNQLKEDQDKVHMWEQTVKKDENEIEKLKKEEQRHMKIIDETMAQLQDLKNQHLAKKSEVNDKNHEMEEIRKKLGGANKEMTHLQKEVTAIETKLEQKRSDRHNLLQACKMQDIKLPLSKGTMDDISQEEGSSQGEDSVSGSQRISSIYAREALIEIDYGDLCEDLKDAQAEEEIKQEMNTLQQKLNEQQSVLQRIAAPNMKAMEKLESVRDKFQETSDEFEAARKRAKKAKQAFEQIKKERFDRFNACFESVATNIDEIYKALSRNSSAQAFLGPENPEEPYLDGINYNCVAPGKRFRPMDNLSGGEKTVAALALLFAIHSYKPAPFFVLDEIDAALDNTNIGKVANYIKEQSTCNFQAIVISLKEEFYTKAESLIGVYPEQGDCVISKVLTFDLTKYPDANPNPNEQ

[2] = target: Dual specificity tyrosine-phosphorylation-regulated kinase 1A (Homo sapiens, UniProt Q13627)
[3] = target: Ribosomal protein S6 kinase alpha-5 (Homo sapiens, UniProt O75582)
[4] = target: Mitogen-activated protein kinase 14 (Homo sapiens, UniProt Q16539)
[5] = target: T2, Phosphorylase b kinase gamma catalytic chain, liver/testis isoform (Homo sapiens, UniProt P15735)
T2 sequence (P15735 whole entry): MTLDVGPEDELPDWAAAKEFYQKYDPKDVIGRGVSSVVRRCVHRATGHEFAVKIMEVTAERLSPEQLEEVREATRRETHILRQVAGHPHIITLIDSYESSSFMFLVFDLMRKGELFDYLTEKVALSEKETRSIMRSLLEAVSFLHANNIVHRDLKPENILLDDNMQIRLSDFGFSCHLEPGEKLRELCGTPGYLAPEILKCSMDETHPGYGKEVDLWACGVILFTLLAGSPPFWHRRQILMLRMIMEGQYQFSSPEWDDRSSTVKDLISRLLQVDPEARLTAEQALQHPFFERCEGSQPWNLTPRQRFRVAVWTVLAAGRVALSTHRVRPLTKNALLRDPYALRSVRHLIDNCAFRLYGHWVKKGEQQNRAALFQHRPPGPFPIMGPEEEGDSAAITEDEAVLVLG

[6] = target: Interleukin-1 receptor-associated kinase 1 (Homo sapiens, UniProt P51617)
[7] = target: Cyclin-dependent kinase 7 (Homo sapiens, UniProt P50613)
Ephrin type-A receptor 5 = Ephrin type-A receptor 5 (Homo sapiens, UniProt P54756)
[8] = target: T3, Bifunctional phosphoribosylaminoimidazole carboxylase/phosphoribosylaminoimidazole succinocarboxamide synthetase (Homo sapiens, UniProt P22234)
T3 sequence (P22234 whole entry): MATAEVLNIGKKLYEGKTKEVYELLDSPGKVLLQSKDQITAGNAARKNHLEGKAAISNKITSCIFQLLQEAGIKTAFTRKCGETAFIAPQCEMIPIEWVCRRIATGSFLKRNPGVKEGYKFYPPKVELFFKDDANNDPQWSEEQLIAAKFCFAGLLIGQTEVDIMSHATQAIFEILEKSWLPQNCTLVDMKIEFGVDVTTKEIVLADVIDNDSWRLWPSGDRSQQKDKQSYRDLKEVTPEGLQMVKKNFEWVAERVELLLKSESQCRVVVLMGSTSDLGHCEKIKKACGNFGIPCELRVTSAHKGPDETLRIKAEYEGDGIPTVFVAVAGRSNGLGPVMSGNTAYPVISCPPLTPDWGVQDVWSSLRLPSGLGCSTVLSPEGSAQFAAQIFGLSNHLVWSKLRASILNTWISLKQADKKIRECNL

[9] = target: Serine/threonine-protein kinase MRCK beta (Homo sapiens, UniProt Q9Y5S2)
[10] = target: T4, Serine/threonine-protein kinase ULK3 (Homo sapiens, UniProt Q6PHR2)
T4 sequence (Q6PHR2 whole entry): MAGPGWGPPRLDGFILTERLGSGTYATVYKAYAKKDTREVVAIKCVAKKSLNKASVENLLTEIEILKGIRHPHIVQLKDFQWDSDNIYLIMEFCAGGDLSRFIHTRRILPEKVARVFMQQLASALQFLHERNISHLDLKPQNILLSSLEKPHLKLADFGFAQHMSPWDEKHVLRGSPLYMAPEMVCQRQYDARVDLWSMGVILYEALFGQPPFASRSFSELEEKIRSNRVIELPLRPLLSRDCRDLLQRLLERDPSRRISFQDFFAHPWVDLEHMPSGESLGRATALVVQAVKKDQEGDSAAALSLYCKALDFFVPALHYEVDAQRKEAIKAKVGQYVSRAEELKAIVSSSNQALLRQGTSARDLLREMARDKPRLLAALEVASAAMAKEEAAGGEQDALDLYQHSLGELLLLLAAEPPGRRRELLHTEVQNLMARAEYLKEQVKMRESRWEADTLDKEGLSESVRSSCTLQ

Chain of Ribosomal protein S6 kinase alpha-5 (O75582 whole entry): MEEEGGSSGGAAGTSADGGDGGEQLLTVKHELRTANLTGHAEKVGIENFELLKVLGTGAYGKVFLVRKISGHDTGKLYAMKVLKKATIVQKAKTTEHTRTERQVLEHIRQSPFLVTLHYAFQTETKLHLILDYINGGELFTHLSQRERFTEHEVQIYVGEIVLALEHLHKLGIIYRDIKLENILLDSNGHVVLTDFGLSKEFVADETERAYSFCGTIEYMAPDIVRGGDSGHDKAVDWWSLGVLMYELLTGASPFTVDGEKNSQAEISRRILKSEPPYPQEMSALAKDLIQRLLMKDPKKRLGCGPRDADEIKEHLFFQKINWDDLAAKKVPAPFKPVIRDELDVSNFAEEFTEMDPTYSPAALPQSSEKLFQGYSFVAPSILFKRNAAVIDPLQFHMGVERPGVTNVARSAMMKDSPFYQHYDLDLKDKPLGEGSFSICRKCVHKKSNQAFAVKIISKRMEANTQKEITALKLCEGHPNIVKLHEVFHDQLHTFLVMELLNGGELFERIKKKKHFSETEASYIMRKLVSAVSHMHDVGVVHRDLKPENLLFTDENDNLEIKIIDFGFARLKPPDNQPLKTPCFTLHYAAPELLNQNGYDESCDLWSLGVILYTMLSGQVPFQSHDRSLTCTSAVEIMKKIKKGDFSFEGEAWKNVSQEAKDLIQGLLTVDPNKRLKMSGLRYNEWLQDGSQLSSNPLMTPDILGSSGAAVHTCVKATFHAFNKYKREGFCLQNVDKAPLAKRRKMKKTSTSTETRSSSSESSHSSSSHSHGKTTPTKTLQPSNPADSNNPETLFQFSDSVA
Chain of Interleukin-1 receptor-associated kinase 1 (P51617 whole entry): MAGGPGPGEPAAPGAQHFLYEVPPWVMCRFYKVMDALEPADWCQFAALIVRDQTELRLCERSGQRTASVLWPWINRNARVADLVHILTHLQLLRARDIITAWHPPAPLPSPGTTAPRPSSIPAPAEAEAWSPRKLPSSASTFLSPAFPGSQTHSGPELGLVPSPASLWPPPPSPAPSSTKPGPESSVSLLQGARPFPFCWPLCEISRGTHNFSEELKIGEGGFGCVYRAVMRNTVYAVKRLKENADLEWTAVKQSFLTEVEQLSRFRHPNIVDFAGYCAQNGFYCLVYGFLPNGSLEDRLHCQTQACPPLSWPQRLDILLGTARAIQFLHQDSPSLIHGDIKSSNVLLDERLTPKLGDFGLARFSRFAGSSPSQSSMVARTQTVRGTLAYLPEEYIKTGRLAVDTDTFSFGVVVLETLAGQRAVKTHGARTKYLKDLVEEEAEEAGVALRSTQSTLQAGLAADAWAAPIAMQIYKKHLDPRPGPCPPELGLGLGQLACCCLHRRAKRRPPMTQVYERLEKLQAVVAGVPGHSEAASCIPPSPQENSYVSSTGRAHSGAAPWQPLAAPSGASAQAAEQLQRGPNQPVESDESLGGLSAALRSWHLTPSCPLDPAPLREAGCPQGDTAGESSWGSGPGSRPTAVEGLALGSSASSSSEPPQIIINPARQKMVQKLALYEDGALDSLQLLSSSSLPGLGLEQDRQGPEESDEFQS
Chain of Serine/threonine-protein kinase MRCK beta (Q9Y5S2 whole entry): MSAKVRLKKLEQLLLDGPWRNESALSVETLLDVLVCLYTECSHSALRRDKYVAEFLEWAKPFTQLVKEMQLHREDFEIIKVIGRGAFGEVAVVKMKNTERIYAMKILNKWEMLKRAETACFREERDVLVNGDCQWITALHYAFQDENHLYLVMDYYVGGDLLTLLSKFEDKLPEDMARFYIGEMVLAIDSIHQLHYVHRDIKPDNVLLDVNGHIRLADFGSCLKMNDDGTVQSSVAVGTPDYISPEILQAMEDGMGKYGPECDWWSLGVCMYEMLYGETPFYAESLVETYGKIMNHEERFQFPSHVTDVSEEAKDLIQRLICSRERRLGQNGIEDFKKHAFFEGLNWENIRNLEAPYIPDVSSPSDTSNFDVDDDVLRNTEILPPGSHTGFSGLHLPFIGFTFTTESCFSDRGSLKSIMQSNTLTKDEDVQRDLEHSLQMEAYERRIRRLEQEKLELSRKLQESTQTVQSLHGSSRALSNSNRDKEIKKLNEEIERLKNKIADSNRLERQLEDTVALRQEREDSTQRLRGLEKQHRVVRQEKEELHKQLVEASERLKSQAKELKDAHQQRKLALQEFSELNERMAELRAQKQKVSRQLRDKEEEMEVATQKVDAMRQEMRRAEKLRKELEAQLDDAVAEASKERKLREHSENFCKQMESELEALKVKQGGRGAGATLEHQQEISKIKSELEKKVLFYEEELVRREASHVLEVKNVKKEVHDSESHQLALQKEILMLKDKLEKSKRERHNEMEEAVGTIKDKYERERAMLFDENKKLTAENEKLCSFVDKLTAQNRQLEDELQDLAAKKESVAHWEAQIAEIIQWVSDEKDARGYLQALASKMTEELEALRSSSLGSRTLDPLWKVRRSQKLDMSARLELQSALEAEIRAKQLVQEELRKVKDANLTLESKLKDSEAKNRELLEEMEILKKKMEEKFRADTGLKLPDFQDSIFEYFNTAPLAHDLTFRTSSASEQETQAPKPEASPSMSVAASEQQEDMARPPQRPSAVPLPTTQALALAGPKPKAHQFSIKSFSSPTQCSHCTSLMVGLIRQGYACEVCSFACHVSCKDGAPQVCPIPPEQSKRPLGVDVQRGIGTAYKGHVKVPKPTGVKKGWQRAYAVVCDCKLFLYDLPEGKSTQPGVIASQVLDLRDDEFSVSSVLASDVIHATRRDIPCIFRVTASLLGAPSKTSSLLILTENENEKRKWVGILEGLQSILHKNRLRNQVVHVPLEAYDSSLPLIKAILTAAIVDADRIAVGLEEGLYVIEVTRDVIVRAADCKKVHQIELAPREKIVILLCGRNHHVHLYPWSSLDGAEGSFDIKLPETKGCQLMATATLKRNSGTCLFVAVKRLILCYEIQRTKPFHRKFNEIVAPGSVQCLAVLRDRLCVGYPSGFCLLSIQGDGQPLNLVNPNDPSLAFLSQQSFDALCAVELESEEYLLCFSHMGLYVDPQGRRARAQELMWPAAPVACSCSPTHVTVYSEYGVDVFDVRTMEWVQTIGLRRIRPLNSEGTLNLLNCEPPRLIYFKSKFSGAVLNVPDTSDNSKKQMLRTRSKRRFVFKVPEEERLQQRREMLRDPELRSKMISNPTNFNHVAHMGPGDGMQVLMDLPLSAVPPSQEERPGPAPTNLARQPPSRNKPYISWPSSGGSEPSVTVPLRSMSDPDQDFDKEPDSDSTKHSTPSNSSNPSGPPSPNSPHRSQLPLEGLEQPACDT
Chain of Mitogen-activated protein kinase 14 (Q16539 whole entry, canonical isoform): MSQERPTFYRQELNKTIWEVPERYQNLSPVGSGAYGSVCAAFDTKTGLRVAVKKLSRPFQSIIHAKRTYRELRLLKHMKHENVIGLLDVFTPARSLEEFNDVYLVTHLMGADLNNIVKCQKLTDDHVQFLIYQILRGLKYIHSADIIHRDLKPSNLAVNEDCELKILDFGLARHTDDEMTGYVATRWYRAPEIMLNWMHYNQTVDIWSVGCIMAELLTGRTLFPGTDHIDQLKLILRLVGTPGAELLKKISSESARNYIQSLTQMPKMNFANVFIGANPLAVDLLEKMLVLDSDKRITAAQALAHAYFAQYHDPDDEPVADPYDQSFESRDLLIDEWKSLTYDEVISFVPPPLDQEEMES
Chain of Cyclin-dependent kinase 7 (P50613 whole entry): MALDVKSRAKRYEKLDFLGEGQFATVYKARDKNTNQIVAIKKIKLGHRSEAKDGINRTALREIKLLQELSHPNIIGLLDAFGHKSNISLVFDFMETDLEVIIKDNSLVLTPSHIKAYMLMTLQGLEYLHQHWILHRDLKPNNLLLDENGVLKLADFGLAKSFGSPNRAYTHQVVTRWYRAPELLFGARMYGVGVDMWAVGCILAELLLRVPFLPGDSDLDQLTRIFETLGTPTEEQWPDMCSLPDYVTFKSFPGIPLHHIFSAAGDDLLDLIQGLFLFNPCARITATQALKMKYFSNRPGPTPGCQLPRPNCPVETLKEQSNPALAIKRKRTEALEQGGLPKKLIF
Chain of Ephrin type-A receptor 5 (P54756 whole entry): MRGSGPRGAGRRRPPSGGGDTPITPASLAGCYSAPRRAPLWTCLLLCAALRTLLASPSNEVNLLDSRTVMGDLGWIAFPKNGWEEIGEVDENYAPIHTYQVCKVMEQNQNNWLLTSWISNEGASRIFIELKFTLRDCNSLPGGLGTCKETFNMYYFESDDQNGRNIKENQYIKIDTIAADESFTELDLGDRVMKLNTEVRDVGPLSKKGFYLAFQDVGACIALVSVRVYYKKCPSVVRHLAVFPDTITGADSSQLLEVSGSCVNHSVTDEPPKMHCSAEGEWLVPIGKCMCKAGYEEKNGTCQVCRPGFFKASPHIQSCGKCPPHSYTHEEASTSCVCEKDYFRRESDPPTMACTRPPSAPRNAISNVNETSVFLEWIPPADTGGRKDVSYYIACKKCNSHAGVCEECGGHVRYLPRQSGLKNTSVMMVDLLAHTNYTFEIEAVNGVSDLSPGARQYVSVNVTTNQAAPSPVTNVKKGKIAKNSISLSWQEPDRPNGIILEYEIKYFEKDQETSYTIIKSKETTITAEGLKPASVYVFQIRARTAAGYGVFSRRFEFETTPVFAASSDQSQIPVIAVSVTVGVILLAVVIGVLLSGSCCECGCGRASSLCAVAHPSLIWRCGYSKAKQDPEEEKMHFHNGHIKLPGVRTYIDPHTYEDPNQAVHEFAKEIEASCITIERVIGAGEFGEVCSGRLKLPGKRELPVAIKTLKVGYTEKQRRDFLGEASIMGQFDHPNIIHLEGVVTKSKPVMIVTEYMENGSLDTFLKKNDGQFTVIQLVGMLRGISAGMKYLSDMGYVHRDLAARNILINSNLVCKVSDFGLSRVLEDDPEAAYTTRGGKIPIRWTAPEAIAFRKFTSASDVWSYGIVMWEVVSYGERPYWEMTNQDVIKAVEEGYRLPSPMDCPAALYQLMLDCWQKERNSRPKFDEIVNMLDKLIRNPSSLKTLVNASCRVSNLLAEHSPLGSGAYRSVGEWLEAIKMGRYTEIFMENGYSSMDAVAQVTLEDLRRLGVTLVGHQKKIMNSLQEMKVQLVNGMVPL

Kd [1]	Kd [2]	Kd [3]	Kd [4]	Kd [5]	Kd [6]	Kd [7]	Kd (Ephrin type-A receptor 5)	Kd [8]	Kd [9]	Kd [10]	SMILES
> 30 µM (inactive)	3.22 µM (active)	> 30 µM (inactive)	0.358 µM (active)	> 30 µM (inactive)	> 30 µM (inactive)	> 30 µM (inactive)	> 30 µM (inactive)	> 30 µM (inactive)	> 30 µM (inactive)	> 30 µM (inactive)	C[C@@H](NC(=O)c1ncnc(N)c1Cl)c1ncc(C(=O)Nc2cc(C(F)(F)F)c(Cl)cn2)s1 [TOVORAFENIB]
> 30 µM (inactive)	> 30 µM (inactive)	> 30 µM (inactive)	> 30 µM (inactive)	2.41 µM (active)	> 30 µM (inactive)	1.44 µM (active)	0.081 µM (active)	> 30 µM (inactive)	> 30 µM (inactive)	0.492 µM (active)	CC(C)c1cc(CNc2nc(Nc3cc(C4CC4)[nH]n3)cc(N3CCN(C)CC3)n2)on1 [XL-228]
> 30 µM (inactive)	5.62 µM	> 30 µM (inactive)	> 30 µM (inactive)	> 30 µM (inactive)	> 30 µM (inactive)	0.473 µM (active)	> 30 µM (inactive)	> 30 µM (inactive)	46.9 µM	> 30 µM (inactive)	CN1C/C=C/CCOc2cccc(c2)-c2ccnc(n2)Nc2cccc(c2)C1 [ZOTIRACICLIB]

SMILES	Kd [1]	Kd [2]	Kd [3]	Kd [4]	Kd [5]	Kd [6]	Kd [7]	Kd (Ephrin type-A receptor 5)	Kd [8]	Kd [9]	Kd [10]
Cc1cc(Nc2ncnc3ccc(NC4=NC(C)(C)CO4)cc23)ccc1Oc1ccn2ncnc2c1 [TUCATINIB]	> 30 µM (inactive)	> 30 µM (inactive)	> 30 µM (inactive)	> 30 µM (inactive)	> 30 µM (inactive)	> 30 µM (inactive)	> 30 µM (inactive)	> 30 µM (inactive)	> 30 µM (inactive)	> 30 µM (inactive)	> 30 µM (inactive)
